The source of these data is patent US11236110B2 (priority 2017, dated 2022).

The conditions of data set [1]: acidic counter-ion; cited from earlier work.
Data set [2] in a line: Preliminary miscibility assays on the free base in selected solvents. The format is physicochemical. As to conditions: for Miscibility: number of volumes needed to dissolve the oil at room temperature. The source says: Preliminary Miscibility Assays on (R)-9-(2,5-difluorophenethyl)-4-ethyl-2-methyl-1-oxa-4,9-diazaspiro[5.5]undecan-3-One Free Base

With `O=C(O)[C@@H](O)c1ccccc1` [(S)-(+)-Mandelic acid], the pKa1 in data set [1] is given as 3.4.
On to `Br` [Hydrobromic acid], for which the pKa1 in data set [1] is −6.
Turning to `CCN1CC2(CCN(CCc3cc(F)ccc3F)CC2)O[C@H](C)C1=O` [(R)-9-(2,5-difluorophenethyl)-4-ethyl-2-methyl-1-oxa-4,9-diazaspiro[5.5]undecan-3-one], in data set [2] (room temperature, all the solvents tested (Table 2)), the “miscibility of the oil with the solvents tested” value is reported as “freely miscible”. Also, the Miscibility in data set [2] (solvent H2O), in data set [2] (solvent IPA (isopropanol)), in data set [2] (solvent MIK (methyl isobutyl ketone)), in data set [2] (solvent THF (tetrahydrofuran)) and in data set [2] (solvent Toluene) was 10 V each time.
For `O=[N+]([O-])O` [Nitric acid], the pKa1 in data set [1] was −1.4.
